US20240245703A1, “TOPICAL APPLICATION OF AGENTS TO REDUCE SUN SENSITIVITY AND IMPROVE TOPICAL PHOTODYNAMIC THERAPY” (Wright State University, priority 2021, published 2024)
Like-named read-outs stand apart in the source and are kept apart here.

Tests used:
[1] = tested on: aSMase; settings: cited from earlier work; for Residual ASM Activity: 10 micromolar, PC12 cells, % of corresponding control values
[2] = tested on: HaCaT keratinocytes; experiment: PDT (5-ALA + blue light) MVP release in HaCaT keratinocytes; assay type: cell-based, human; settings: HaCaT
Description: PDT results in acute cellular destruction and inflammation and photosensitivity, as well as delayed immunosuppression. […] Thus, it was of further interest whether experimental PDT of HaCaT keratinocytes generated MVP in vitro. To that end, HaCaT cells were pretreated with 5-ALA alone, or blue light alone, or a 4 hour incubation of 5-ALA in the dark followed by various fluences of blue light, and MVP were measured in the supernatants at 4 hours post blue light. 100 nM CPAF and TPA were used as positive controls for MVP release.
For the data shown in FIG. 14, HaCaT keratinocytes were treated with sham (no treatment), 0.1% ethanol vehicle control (VEH), 100 nM TPA, 100 nM CPAF, 1 mM 5-ALA for 4 hours, or 5-ALA followed by various fluences (2.5-20 J/cm^2) of blue light or blue light alone. Levels of MVPs released into supernatants were measured at 4 hours. […] For the data shown in FIG. 15, human skin explants were treated with sham, 100 μL vehicle (90% ethanol+10% DMSO) (VEH), 1 μM TPA, 1 µM CPAF, 1 mM 5-ALA for 4 hours, blue light or 5-ALA+blue light at 20 J/cm^2. After four hours, duplicate 6-mm punch biopsies were obtained, weighed, and MVPs were measured. The data are the mean±SE from 3-4 separate experiments conducted in duplicate. * Denotes statistically significant (P <0.05) changes from sham values.
Supernatants were collected at 4 hours and MVP measured. The data are the mean±SE MVP fold change from sham-treated values. For the data shown in FIG. 17, human skin explants were treated as in FIG. 15, with the exception that in some experiments 100 μL of 5 mM IMIP was added post-PDT. MVP were measured in duplicate 6-mm punch biopsies obtained 4 hours post-treatment.

[3] = hairless mice, effect of propylene glycol; cited from earlier work

Clc1ccccc1CNCC1CCC(CNCc2ccccc2Cl)CC1 (stereo not drawn) [AY9944, N-[(2-chlorophenyl)methyl]-1-[4-[[(2-chlorophenyl)methylamino]methyl]cyclohexyl]methanamine]
Residual ASM Activity ([1]; incubation time 0.5 h): 22.1%

CCN(CCCc1ccccc1)CCCc1ccccc1 [Alverine]
Residual ASM Activity ([1]; incubation time 24 h): 21.7%

CCCCc1oc2ccccc2c1C(=O)c1cc(I)c(OCCN(CC)CC)c(I)c1 [Amiodarone]
Residual ASM Activity ([1]; incubation time 24 h): 14.5%

CCN(CC)CCCN(c1ccccc1)C1Cc2ccccc2C1 [Aprindine]
Residual ASM Activity ([1]; incubation time 6 h): 27.5%

COc1ccc(CCN2CCC(Nc3nc4ccccc4n3Cc3ccc(F)cc3)CC2)cc1 [Astemizole]
Residual ASM Activity ([1]; incubation time 6 h): 14.3%

CN1[C@@H]2CC[C@H]1C[C@@H](OC(c1ccccc1)c1ccccc1)C2 [Benztropine]
Residual ASM Activity ([1]; incubation time 0.5 h): 12.7%

CC(C)COCC(CN(Cc1ccccc1)c1ccccc1)N1CCCC1 (stereo not drawn) [Bepridil]
Residual ASM Activity ([1]; incubation time 24 h): 27.1%

OC(CCN1CCCCC1)(c1ccccc1)C1CC2C=CC1C2 (stereo not drawn) [Biperidene]
Residual ASM Activity ([1]; incubation time 24 h): 26.2%

CN(Cc1cc(Br)cc(Br)c1N)C1CCCCC1 [Bromhexine]
Residual ASM Activity ([1]; incubation time 48 h): 102.8%

CCN(CC)CCNC(C(=O)OCCC(C)C)c1ccccc1 (stereo not drawn) [Camylofin]
Residual ASM Activity ([1]; incubation time 24 h): 21.7%

COc1ccccc1OCCNCC(O)COc1cccc2[nH]c3ccccc3c12 (stereo not drawn) [Carvedilol]
Residual ASM Activity ([1]; incubation time 24 h): 22.4%

CC(C)/N=c1\cc2n(-c3ccc(Cl)cc3)c3ccccc3nc-2cc1Nc1ccc(Cl)cc1 [Clofazimine]
Residual ASM Activity ([1]; incubation time 48 h): 23.7%

CCN(CC)CCOc1ccc(C(=C(Cl)c2ccccc2)c2ccccc2)cc1 [Clomiphene]
Residual ASM Activity ([1]; incubation time 0.5 h): 13.0%

CN(C)CCCN1c2ccccc2CCc2ccc(Cl)cc21 [Clomipramine]
Residual ASM Activity ([1]; incubation time 0.5 h): 21.8%

Clc1ccc(C(OCCN2CCCCC2)c2ccccc2)cc1 (stereo not drawn) [Cloperastine]
Residual ASM Activity ([1]; incubation time 24 h): 26.7%

NCC(=O)CCC(=O)O [Compound 5-ALA, 5-aminolevulinic acid]
MVP generation, 5-ALA along with blue light (PDT) ([2]; 1 mM 5-ALA 4 hours then 2.5-20 J/cm^2 blue light, 4 h): resulted in high levels of MVP generation in a dosage-dependent manner
MVP formation, 5-ALA alone ([2]; 1 mM 5-ALA 4 hours without blue light): did not generate appreciate MVP formation

C[C@H]1[C@H]2CC[C@H]3[C@@H]4CC=C5C[C@@H](N(C)C)CC[C@]5(C)[C@H]4CC[C@]23CN1C [Conessine]
Residual ASM Activity ([1]; incubation time 24 h): 20.8%

CN(C)CCC=C1c2ccccc2C=Cc2ccccc21 [Cyclobenzaprine]
Residual ASM Activity ([1]; incubation time 0.5 h): 26.2%

CNCCCN1c2ccccc2CCc2ccccc21 [Desipramine]
absorption with propylene glycol [3]: enhances absorption
Residual ASM Activity ([1]; incubation time 0.5 h): 15.6%

CCN(CC)CCOC(=O)C(c1ccccc1)C1CCCCC1 (stereo not drawn) [Drofenine]
Residual ASM Activity ([1]; incubation time 24 h): 20.8%

CC[C@H]1CN2CCc3cc(OC)c(OC)cc3[C@@H]2C[C@@H]1C[C@H]1NCCc2cc(OC)c(OC)cc21 [Emetine]
Residual ASM Activity ([1]; incubation time 24 h): 0.4%

CC(NCCC(c1ccccc1)c1ccccc1)c1ccccc1 (stereo not drawn) [Fendiline]
Residual ASM Activity ([1]; incubation time 0.5 h): 25.2%

Fc1ccc(C(c2ccc(F)cc2)N2CCN(C/C=C/c3ccccc3)CC2)cc1 [Flunarizine]
Residual ASM Activity ([1]; incubation time 48 h): 32.7%

CNCCC(Oc1ccc(C(F)(F)F)cc1)c1ccccc1 (stereo not drawn) [Fluoxetine]
Residual ASM Activity ([1]; incubation time 0.5 h): 13.0%

OCCN1CCN(CC/C=C2/c3ccccc3Sc3ccc(C(F)(F)F)cc32)CC1 [Flupenthixol]
Residual ASM Activity ([1]; incubation time 0.5 h): 18.2%

CN(CCCN1c2ccccc2CCc2ccccc21)CC(=O)c1ccc(Cl)cc1 [Lofepramine]
Residual ASM Activity ([1]; incubation time 24 h): 19.2%

CN(C)C(=O)C(CCN1CCC(O)(c2ccc(Cl)cc2)CC1)(c1ccccc1)c1ccccc1 [Loperamide]
Residual ASM Activity ([1]; incubation time 24 h): 24.4%

CNCCCC12CCC(c3ccccc31)c1ccccc12 [Maprotiline]
Residual ASM Activity ([1]; incubation time 0.5 h): 13.5%

CCN(CCCCOC(=O)c1ccc(OC)c(OC)c1)C(C)Cc1ccc(OC)cc1 (stereo not drawn) [Mebeverine]
Residual ASM Activity ([1]; incubation time 24 h): 31.8%

COCC(=O)O[C@]1(CCN(C)CCCc2nc3ccccc3[nH]2)CCc2cc(F)ccc2[C@@H]1C(C)C [Mibefradil]
Residual ASM Activity ([1]; incubation time 6 h): 20.8%

NCCC(Oc1ccc(C(F)(F)F)cc1)c1ccccc1 (stereo not drawn) [Norfluoxetine]
Residual ASM Activity ([1]; incubation time 0.5 h): 22.5%

CNCCC=C1c2ccccc2CCc2ccccc21 [Nortriptyline]
absorption with propylene glycol [3]: enhances absorption
Residual ASM Activity ([1]; incubation time 0.5 h): 13.3%

Fc1ccc([C@@H]2CCNC[C@H]2COc2ccc3c(c2)OCO3)cc1 [Paroxetine]
Residual ASM Activity ([1]; incubation time 0.5 h): 31.7%

OC1(c2ccc(Cl)c(C(F)(F)F)c2)CCN(CCCC(c2ccc(F)cc2)c2ccc(F)cc2)CC1 [Penfluridol]
Residual ASM Activity ([1]; incubation time 6 h): 22.0%

C1CCC(C(CC2CCCCN2)C2CCCCC2)CC1 (stereo not drawn) [Perhexiline]
Residual ASM Activity ([1]; incubation time 0.5 h): 8.5%

OCCN1CCN(CCCN2c3ccccc3Sc3ccc(Cl)cc32)CC1 [Perphenazine]
Residual ASM Activity ([1]; incubation time 0.5 h): 20.1%

CN1CCC(=C2c3ccccc3Sc3ccccc32)CC1 [Pimethixene]
Residual ASM Activity ([1]; incubation time 24 h): 16.5%

CCN(CC)C(C)CN1c2ccccc2Sc2ccccc21 (stereo not drawn) [Profenamine]
Residual ASM Activity ([1]; incubation time 0.5 h): 29.7%

CN(C)CCCN1c2ccccc2Sc2ccccc21 [Promazine]
Residual ASM Activity ([1]; incubation time 0.5 h): 33.6%

CC(CN1c2ccccc2Sc2ccccc21)N(C)C (stereo not drawn) [Promethazin]
Residual ASM Activity ([1]; incubation time 0.5 h): 32.2%

CNCCCC1c2ccccc2C=Cc2ccccc21 [Protriptyline]
Residual ASM Activity ([1]; incubation time 0.5 h): 12.7%

CN[C@H]1CC[C@@H](c2ccc(Cl)c(Cl)c2)c2ccccc21 [Sertraline]
Residual ASM Activity ([1]; incubation time 0.5 h): 12.3%

CC/C(=C(\c1ccccc1)c1ccc(OCCN(C)C)cc1)c1ccccc1 [Tamoxifen]
Residual ASM Activity ([1]; incubation time 6 h): 4.1%

CC(C)(C)c1ccc(C(O)CCCN2CCC(C(O)(c3ccccc3)c3ccccc3)CC2)cc1 (stereo not drawn) [Terfenadine]
Residual ASM Activity ([1]; incubation time 0.5 h): 21.8%

CSc1ccc2c(c1)N(CCC1CCCCN1C)c1ccccc1S2 (stereo not drawn) [Thioridazin]
Residual ASM Activity ([1]; incubation time 6 h): 10.4%

C[C@H]1CC[C@]2(NC1)O[C@H]1C[C@H]3[C@@H]4CC[C@H]5C[C@@H](O)CC[C@]5(C)[C@H]4CC[C@]3(C)[C@H]1[C@@H]2C [Tomatidine]
Residual ASM Activity ([1]; incubation time 24 h): 15.8%

CN1CCN(CCCN2c3ccccc3Sc3ccc(C(F)(F)F)cc32)CC1 [Trifluoperazine]
Residual ASM Activity ([1]; incubation time 6 h): 8.3%

CN(C)CCCN1c2ccccc2Sc2ccc(C(F)(F)F)cc21 [Triflupromazine]
Residual ASM Activity ([1]; incubation time 0.5 h): 29.5%

CC(CN(C)C)CN1c2ccccc2CCc2ccccc21 (stereo not drawn) [Trimipramine]
Residual ASM Activity ([1]; incubation time 0.5 h): 13.8%

c1cc(CN2CCCCC2)cc(OCCCNc2nc3ccccc3s2)c1 [Zolantidine_(SKB41), Zolantidine]
Residual ASM Activity ([1]; incubation time 6 h): 21.6%

O=C(CCCN1CCC(O)(c2ccc(Cl)cc2)CC1)c1ccc(F)cc1 [haloperidol]
residual aSMase activity after treatment ([1]; from Kornhuber et al. 2008): 86.1%
